The text below walks through data of patent US20230265116A1, “DEGRADATION OF (EGFR) BY CONJUGATION OF EGFR INHIBITORS WITH E3 LIGASE LIGAND AND METHODS OF USE” (BEIGENE, LTD., priority 2020, published 2023).

Where two headings read alike, the source gives them in different places.

Common to all, as to assay type: cell-based
Assay [1] addresses T1, EGFR WT (BaF3 WT cells) (Homo sapiens, UniProt P00533).
T1 construct: expressed in transfected cells; host or cells: BaF3
Description: EGFR degradation HTRF assay, BaF3 WT cells. The settings on record: BaF3 WT, 16h treatment. On the procedure:
BaF3 WT(wild type), BaF3-LTC(L858R/T790M/C797S) and BaF3-DTC(Del19/T790M/C797S) cells are treated with compounds diluted in 0.2% DMSO cell culture medium and incubate for 16h, 37° C., 5% CO2, H1975-#36, H1975-#28, H1975-#23 and HCC827 cells are treated with compounds diluted in 0.2% DMSO cell culture medium on day 2, incubate for 16h, 37° C., 5% CO2.the final concentriation of compounds in all assay is start with 10 uM, 5-fold dilution, total 8 doses were included.
After 16h treatment, add HTRF lysis buffer to each well; seal the plate and incubate 1 hour at room temperature on a plate shaker; Once the cells are lysed, 16 μL of cell lysate are transferred to a PE 384-well HTRF detection plate; 4 μL of pre-mixed HTRF antibodies are added to each well; Cover the plate with a plate sealer, spin 1000 rpm for 1 min, Incubate overnight at room temperature; Read on BMG PheraStar with HTRF protocol (337 nm-665 nm-620 nm).
The inhibition (degradation) percentage of the compound was calculated by the following equation: Inhibition percentage of Compound=100-100×(Signal-low control)/(High control-low control), wherein signal=each test compound group
High control=Cell group with added DMSO and without compound, indicating microplate readings without EGFR degradation;
Dmax is the maximum percentage of inhibition (degradation).
The IC50 (DC50) value of a compound can be obtained by fitting the following equation
Y=Bottom+(TOP−Bottom)/(1+((IC50/X)^hillslope))
Wherein, X and Y are known values, and IC50, Hillslope, Top and Bottom are the parameters obtained by fitting with software. Y is the inhibition percentage (calculated from the equation), X is the concentration of the compound; IC50 is the concentration of the compound when the 50% inhibition is reached. The smaller the IC50 value is, the stronger the inhibitory ability of the compound is. Vice versa, the higher the IC50 value is, the weaker the inhibitory ability of the compound is; Hillslope represents the slope of the fitted curve, generally around 1*; Bottom represents the minimum value of the curve obtained by data fitting, which is generally 0%±20%; Top represents the maximum value of the curve obtained by data fitting, which is generally 100%±20%. The experimental data were fitted by calculating and analyzing with Dotmatics data analysis software.
Background: TR-FRET usually uses a lanthanide donor and a delayed reading to cut background.

Assay [2] relates to EGFR Del19/T790M/C797S (BaF3-DTC cells). Description: EGFR degradation HTRF assay, BaF3-DTC cells. Conditions: 16h treatment. In outline:
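EGFR remaining after a 16 h, 37 °C exposure (8 doses, 5-fold steps from 10 uM final, 0.2% DMSO) was quantified by HTRF antibodies in cell lysate. Percent inhibition relative to DMSO control was fitted by four-parameter logistic to give DC50; Dmax denotes maximal degradation.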

Assay [3] addresses T2, EGFR L858R/T790M/C797S (BaF3-LTC cells) (Homo sapiens, UniProt P00533, C797S/L858R/T790M).
T2 construct: expressed in transfected cells; host or cells: BaF3
As to the kind of experiment: EGFR degradation HTRF assay, BaF3-LTC cells. An outline of the steps:
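Cells treated 16 h at 37 °C, 5% CO2 in medium with 0.2% DMSO; top final concentration 10 uM, 5-fold dilution, 8 doses. Lysates read by HTRF (665/620 nm); degradation % versus DMSO high control, DC50 from four-parameter fit, Dmax as maximal degradation.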

Assay [4] concerns EGFR Del19/T790M/C797S (H1975-clone #28). As to the kind of experiment: EGFR degradation HTRF assay, H1975-clone #28 DTC cells. The settings on record: H1975 # 28 DTC cells; for DC50: EGFR degradation, IC50 (DC50) from curve fit, read-out: DC50(nM) H1975 # 28 DTC; for Dmax (%) H1975 # 28 DTC: maximum percentage of inhibition (degradation). An outline of the steps: (§1)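 The test uses H1975 clonal lines carrying lentiviral mutant EGFR with endogenous copies removed, treated 16h at 37° C., 5% CO2. EGFR left in the lysate is quantified by HTRF, and DC50 is derived from an 8-dose curve starting at 10 uM final.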

Assay [5] deals with EGFR Del19/C797S (H1975-clone #23). Description: EGFR degradation HTRF assay, H1975-clone #23 DC cells. Conditions: 16h treatment; for H1975 #23 DC Dmax (%): maximum percentage of degradation; for DC50: H1975 #23 DC, read-out: H1975 #23 DC DC50. In outline:
as §1

Assay [6] addresses T3, EGFR L858R/C797S (BaF3 LC cells) (Homo sapiens, UniProt P00533, C797S/L858R).
T3 construct: expressed in transfected cells; host or cells: BaF3
Description: EGFR degradation HTRF assay, BaF3 LC cells. The settings on record: BaF3 LC, 16h treatment; read-out: BaF3 LC DC50.

Setting [7] is: BaF3-LTC cells, EGFR degradation, IC50 (DC50) from curve fit, read-out: DC50(nM) BaF3-LTC.

T3 sequence (P00533 25-1210 C797S/L858R): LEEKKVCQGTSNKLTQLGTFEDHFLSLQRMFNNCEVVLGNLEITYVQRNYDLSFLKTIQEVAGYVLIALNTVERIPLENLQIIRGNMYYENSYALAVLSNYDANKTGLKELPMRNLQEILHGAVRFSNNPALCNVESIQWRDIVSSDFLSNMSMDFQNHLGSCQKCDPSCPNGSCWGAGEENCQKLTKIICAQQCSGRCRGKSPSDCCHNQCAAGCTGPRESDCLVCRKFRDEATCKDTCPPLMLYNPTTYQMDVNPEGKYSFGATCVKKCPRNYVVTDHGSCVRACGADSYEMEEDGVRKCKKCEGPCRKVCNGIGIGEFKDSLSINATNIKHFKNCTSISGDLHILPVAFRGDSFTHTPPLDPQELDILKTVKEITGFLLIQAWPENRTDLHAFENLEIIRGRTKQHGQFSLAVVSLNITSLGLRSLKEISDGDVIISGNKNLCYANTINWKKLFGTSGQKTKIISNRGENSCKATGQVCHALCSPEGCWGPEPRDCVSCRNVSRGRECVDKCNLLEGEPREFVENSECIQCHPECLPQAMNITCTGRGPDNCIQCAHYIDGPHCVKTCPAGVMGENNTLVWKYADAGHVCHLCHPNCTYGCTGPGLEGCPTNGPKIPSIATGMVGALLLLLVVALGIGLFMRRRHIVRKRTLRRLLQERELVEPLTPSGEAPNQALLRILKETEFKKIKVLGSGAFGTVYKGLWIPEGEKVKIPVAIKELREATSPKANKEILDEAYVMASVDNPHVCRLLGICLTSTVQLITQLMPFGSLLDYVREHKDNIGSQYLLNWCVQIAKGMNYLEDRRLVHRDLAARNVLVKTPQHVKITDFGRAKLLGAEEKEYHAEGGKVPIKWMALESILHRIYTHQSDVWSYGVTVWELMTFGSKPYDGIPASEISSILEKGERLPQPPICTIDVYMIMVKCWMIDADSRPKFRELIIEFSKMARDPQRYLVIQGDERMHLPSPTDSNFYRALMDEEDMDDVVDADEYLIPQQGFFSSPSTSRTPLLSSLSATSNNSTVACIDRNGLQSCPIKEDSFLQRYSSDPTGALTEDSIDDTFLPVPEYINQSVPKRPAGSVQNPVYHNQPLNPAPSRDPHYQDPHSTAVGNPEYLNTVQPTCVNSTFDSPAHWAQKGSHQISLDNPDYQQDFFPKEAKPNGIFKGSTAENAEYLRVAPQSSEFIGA
T2 sequence (P00533 25-1210 T790M/C797S/L858R): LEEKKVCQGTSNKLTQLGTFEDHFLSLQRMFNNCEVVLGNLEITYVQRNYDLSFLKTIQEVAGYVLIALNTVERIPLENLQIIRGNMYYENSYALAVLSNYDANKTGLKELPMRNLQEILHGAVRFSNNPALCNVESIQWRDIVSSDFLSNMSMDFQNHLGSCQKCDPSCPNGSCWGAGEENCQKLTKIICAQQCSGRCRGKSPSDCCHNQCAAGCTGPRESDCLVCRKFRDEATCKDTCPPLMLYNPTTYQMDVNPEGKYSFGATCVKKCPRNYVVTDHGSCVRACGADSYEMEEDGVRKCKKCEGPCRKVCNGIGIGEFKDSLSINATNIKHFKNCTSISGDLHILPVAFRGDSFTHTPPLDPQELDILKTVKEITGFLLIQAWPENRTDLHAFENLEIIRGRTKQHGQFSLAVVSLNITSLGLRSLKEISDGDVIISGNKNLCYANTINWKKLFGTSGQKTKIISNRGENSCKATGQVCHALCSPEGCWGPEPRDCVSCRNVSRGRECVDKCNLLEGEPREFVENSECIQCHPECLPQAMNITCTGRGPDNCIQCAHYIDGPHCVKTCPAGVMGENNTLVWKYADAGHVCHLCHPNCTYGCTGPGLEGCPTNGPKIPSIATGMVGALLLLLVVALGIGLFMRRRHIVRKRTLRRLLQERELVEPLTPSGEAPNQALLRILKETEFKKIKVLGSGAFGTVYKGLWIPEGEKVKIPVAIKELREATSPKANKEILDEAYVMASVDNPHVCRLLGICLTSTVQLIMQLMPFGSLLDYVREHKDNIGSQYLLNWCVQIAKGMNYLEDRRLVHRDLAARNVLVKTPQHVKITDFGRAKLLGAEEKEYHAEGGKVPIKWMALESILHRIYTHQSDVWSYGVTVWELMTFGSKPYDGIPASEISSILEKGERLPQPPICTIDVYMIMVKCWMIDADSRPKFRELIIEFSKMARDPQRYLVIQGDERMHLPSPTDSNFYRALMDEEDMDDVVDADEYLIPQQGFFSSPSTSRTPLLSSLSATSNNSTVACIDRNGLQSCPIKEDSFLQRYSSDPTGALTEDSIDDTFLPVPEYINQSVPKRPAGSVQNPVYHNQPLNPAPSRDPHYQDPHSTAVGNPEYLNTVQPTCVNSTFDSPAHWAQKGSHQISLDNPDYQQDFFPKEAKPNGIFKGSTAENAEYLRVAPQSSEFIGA
T1 sequence (P00533 25-1210): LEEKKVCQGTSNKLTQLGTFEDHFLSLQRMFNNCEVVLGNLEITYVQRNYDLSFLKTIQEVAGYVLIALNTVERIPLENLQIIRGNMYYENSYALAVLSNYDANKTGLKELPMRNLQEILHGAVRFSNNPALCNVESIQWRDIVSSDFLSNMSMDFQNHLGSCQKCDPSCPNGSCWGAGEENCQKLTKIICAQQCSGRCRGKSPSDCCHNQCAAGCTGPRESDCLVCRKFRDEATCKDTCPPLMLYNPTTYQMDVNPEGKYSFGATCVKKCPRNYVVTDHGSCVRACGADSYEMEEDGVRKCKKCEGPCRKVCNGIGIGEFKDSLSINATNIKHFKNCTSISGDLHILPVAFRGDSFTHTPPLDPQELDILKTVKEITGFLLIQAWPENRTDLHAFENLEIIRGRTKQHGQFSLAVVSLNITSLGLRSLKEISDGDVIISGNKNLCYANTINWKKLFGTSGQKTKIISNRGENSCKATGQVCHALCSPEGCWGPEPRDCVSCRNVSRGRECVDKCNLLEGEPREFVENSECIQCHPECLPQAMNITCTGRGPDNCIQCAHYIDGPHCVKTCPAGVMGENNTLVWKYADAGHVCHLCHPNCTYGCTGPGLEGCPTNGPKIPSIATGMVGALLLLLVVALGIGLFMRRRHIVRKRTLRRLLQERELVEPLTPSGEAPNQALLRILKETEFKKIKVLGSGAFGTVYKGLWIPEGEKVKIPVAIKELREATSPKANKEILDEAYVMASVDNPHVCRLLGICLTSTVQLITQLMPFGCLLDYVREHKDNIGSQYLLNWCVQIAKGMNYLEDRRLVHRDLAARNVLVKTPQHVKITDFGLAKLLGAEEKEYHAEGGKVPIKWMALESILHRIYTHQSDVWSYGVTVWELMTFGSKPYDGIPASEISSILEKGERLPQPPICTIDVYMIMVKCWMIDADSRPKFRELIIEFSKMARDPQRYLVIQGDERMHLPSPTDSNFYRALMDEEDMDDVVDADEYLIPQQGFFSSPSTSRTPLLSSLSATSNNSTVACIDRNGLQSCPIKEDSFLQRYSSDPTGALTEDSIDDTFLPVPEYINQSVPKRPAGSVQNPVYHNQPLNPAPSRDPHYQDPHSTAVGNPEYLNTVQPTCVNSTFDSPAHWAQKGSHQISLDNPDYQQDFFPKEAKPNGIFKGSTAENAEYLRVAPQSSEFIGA

`CCc1cc(Nc2ncc(Br)c(Nc3ccc4nccnc4c3P(C)(C)=O)n2)c(OC)cc1N1CCC(N2CCN(CCC3CCN(c4ccc5c(c4)CN(C4CCC(=O)NC4=O)C5=O)CC3)CC2)CC1` (stereo not drawn) [Example 70, 3-(5-(4-(2-(4-(1-(4-((5-bromo-4-((5-(dimethylphosphoryl)quinoxalin-6-yl)amino)pyrimidin-2-yl)amino)-2-ethyl-5-methoxyphenyl)piperidin-4-yl)piperazin-1-yl)ethyl)piperidin-1-yl)-1-oxoisoindolin-2-yl)piperidine-2,6-dione]: the half-maximal degradation concentration (DC50) (usually the midpoint of the concentration-degradation curve) in assay [1] is over 10000 nM; in assay [2] (read-out: DTC DC50), 8.49 nM; in assay [3] (BaF3-LTC, 16h treatment, read-out: LTC DC50) it was 12.2 nM. The Dmax (in general, the greatest extent of degradation seen) stood at 26.1% in assay [1] (maximum percentage of degradation, read-out: WT Dmax (%)) and 95% in assay [3] (BaF3-LTC, 16h treatment, maximum percentage of degradation, read-out: LTC Dmax (%)). Also, the “DTC Dmax (%)” value in assay [2] (maximum percentage of degradation) was 91.36%.
In the case of `CCc1ncc2c(P(C)(C)=O)c(Nc3nc(Nc4cc(CC)c(N5CCC(N6CCN(CCc7cc(F)c([C@H]8CCC(=O)NC8=O)c(F)c7)CC6)CC5)cc4OC)ncc3Br)ccc2n1` [Example 589, (R)-3-(4-(2-(4-(1-(4-((5-bromo-4-((5-(dimethylphosphoryl)-2-ethylquinazolin-6-yl)amino)pyrimidin-2-yl)amino)-2-ethyl-5-methoxyphenyl)piperidin-4-yl)piperazin-1-yl)ethyl)-2,6-difluorophenyl)piperidine-2,6-dione], the DC50 in assay [4] stood at 0.844 nM; in assay [5], 2.2 nM; in assay [3] (setting [7]) it was 4.34 nM; in assay [6], 20.3 nM. Also, the “Dmax (%) H1975 # 28 DTC” value in assay [4] came out at 86.23%. The “H1975 #23 DC Dmax (%)” value in assay [5] came to 84.51%.
Turning to `CCOc1cc(N2CCC(N3CCN(CCc4cccc5c4n(CC)c(=O)n5C4CCC(=O)NC4=O)CC3)CC2)c(CC)cc1Nc1ncc(Br)c(Nc2cc(F)c3nc(CC)ccc3c2P(C)(C)=O)n1` (stereo not drawn) [Example 643, 3-(4-(2-(4-(1-(4-((5-bromo-4-((5-(dimethylphosphoryl)-2-ethyl-8-fluoroquinolin-6-yl)amino)pyrimidin-2-yl)amino)-5-ethoxy-2-ethylphenyl)piperidin-4-yl)piperazin-1-yl)ethyl)-3-ethyl-2-oxo-2,3-dihydro-1H-benzo[d]imidazol-1-yl)piperidine-2,6-dione], the half-maximal degradation concentration (DC50) in assay [4] is 2.48 nM; in assay [5], 1.45 nM; in assay [3] (setting [7]), 3.86 nM; in assay [6], 3.97 nM. For the same molecule, the “Dmax (%) H1975 # 28 DTC” value in assay [4] was determined as 65.15%. Besides, the “H1975 #23 DC Dmax (%)” value in assay [5] was determined as 73.67%.
For the molecule `CCOc1cc(N2CCC(N3CCN(CCc4cccc5c4n(C)c(=O)n5C4CCC(=O)NC4=O)CC3)CC2)c(CC)cc1Nc1ncc(Br)c(Nc2ccc3nc(CC)ccc3c2P(C)(C)=O)n1` (stereo not drawn) [Example 752, 3-(4-(2-(4-(1-(4-((5-bromo-4-((5-(dimethylphosphoryl)-2-ethylquinolin-6-yl)amino)pyrimidin-2-yl)amino)-5-ethoxy-2-ethylphenyl)piperidin-4-yl)piperazin-1-yl)ethyl)-3-methyl-2-oxo-2,3-dihydro-1H-benzo[d]imidazol-1-yl)piperidine-2,6-dione], the half-maximal degradation concentration (DC50) in assay [4] turned out to be 1 nM; in assay [5] it was 1.76 nM; in assay [3] (setting [7]) it was 6.34 nM; in assay [6] it was 2.23 nM. Besides, the “Dmax (%) H1975 # 28 DTC” value in assay [4] was 77.12%. Further, the “H1975 #23 DC Dmax (%)” value in assay [5] is listed as 78.99%.
As to `CCc1cc(Nc2ncc(Br)c(Nc3ccc4c(=O)n(CC)ncc4c3P(C)(C)=O)n2)c(OC)cc1N1CCC(N2CCN(CCc3cc(F)c([C@H]4CCC(=O)NC4=O)c(F)c3)CC2)CC1` [Example 753, (R)-3-(4-(2-(4-(1-(4-((5-bromo-4-((5-(dimethylphosphoryl)-2-ethyl-1-oxo-1,2-dihydrophthalazin-6-yl)amino)pyrimidin-2-yl)amino)-2-ethyl-5-methoxyphenyl)piperidin-4-yl)piperazin-1-yl)ethyl)-2,6-difluorophenyl)piperidine-2,6-dione], the DC50 in assay [4] was 6.28 nM; in assay [5] it was 2.43 nM; in assay [3] (setting [7]), 83.7 nM; in assay [6], 20.1 nM. Moreover, the “Dmax (%) H1975 # 28 DTC” value in assay [4] is reported as 87.49%. In assay [5], the “H1975 #23 DC Dmax (%)” value amounted to 78.45%.
As to `CCc1ccc2c(P(C)(C)=O)c(Nc3nc(Nc4cc(CC)c(N5CCC(N6CCN(C(=O)[C@H]7CN(c8cc(F)c([C@H]9CCC(=O)NC9=O)c(F)c8)CC7(C)C)CC6)CC5)cc4OC)ncc3Br)ccc2n1` [Example 754, (R)-3-(4-((R)-4-(4-(1-(4-((5-bromo-4-((5-(dimethylphosphoryl)-2-ethylquinolin-6-yl)amino)pyrimidin-2-yl)amino)-2-ethyl-5-methoxyphenyl)piperidin-4-yl)piperazine-1-carbonyl)-3,3-dimethylpyrrolidin-1-yl)-2,6-difluorophenyl)piperidine-2,6-dione], the 50% degradation concentration (DC50) is 3.22 nM in assay [4], 5.6 nM in assay [5], 13.4 nM in assay [3] (setting [7]) and 36.1 nM in assay [6]. Further, in assay [4], the “Dmax (%) H1975 # 28 DTC” value was found to be 86.62%. Besides, the “H1975 #23 DC Dmax (%)” value in assay [5] is reported as 71.73%.
On to `CCc1ccc2c(P(C)(C)=O)c(Nc3nc(Nc4cc(CC)c(N5CCC(N6CCN(C(=O)C7CN(c8cc(F)c([C@H]9CCC(=O)NC9=O)c(F)c8)C7)CC6)CC5)cc4OC)ncc3Br)ccc2n1` [Example 755, (R)-3-(4-(3-(4-(1-(4-((5-bromo-4-((5-(dimethylphosphoryl)-2-ethylquinolin-6-yl)amino)pyrimidin-2-yl)amino)-2-ethyl-5-methoxyphenyl)piperidin-4-yl)piperazine-1-carbonyl)azetidin-1-yl)-2,6-difluorophenyl)piperidine-2,6-dione], for which the DC50 was found to be 0.57 nM in assay [4], 7.68 nM in assay [5], 4.13 nM in assay [3] (setting [7]) and 16.4 nM in assay [6]. Besides, the “Dmax (%) H1975 # 28 DTC” value in assay [4] is 84.62%. For the same molecule, the “H1975 #23 DC Dmax (%)” value in assay [5] came out at 69.09%.
For `CCc1cc(Nc2ncc(Br)c(Nc3ccc4c(=O)n(C)ncc4c3P(C)(C)=O)n2)c(OC)cc1N1CCC(N2CCN(CCc3cccc4c3C3(CC3)C(=O)N4C3CCC(=O)NC3=O)CC2)CC1` (stereo not drawn) [Example 756, 3-(4′-(2-(4-(1-(4-((5-bromo-4-((5-(dimethylphosphoryl)-2-methyl-1-oxo-1,2-dihydrophthalazin-6-yl)amino)pyrimidin-2-yl)amino)-2-ethyl-5-methoxyphenyl)piperidin-4-yl)piperazin-1-yl)ethyl)-2′-oxospiro[cyclopropane-1,3′-indolin]-1′-yl)piperidine-2,6-dione], the DC50 in assay [4] was 0.608 nM; in assay [5] it was 1.69 nM; in assay [3] (setting [7]), 2.31 nM; in assay [6] it was 10.1 nM. Also, in assay [4], the “Dmax (%) H1975 # 28 DTC” value amounted to 80.03%. The “H1975 #23 DC Dmax (%)” value in assay [5] turned out to be 73.8%.
